This is an account of results in EP0176444A1, “Process for the preparation of derivatives of 4H-1,2,4-triazole, triazoles so obtained, their use as medicaments, and pharmaceutical compositons containing them” (ROUSSEL-UCLAF, priority 1984, dated 1986).

Assay [1] deals with arthrite chronique à l'adjuvant. The assay can be described thus: Anti-inflammatory activity: chronic adjuvant arthritis (preventive treatment). Format: in vivo, rat. As for the experimental part: L'injection d'adjuvant du type Freund dans une patte postérieure provoque, chez le rat, l'apparition rapide d'une lésion inflammatoire primaire dans cette patte, puis, après un temps de latence de 13 à 15 jours, le déclenchement d'une arthrite secondaire affectant notamment l'autre patte postérieure. Le test est pratiqué sur des rats mâles âgés de 42 à 50 jours, qui reçoivent en injection intraplantaire, 0,1 ml d'adjuvant de type "Freund" (suspension dans l'huile de vaseline de 6 mg par ml de mycobacterium butyricum tués).
Les animaux reçoivent le produit étudié, par voie orale, du jour 0 (jour de l'injection de l'adjuvant) jusqu'à la veille du sacrifice, pratiqué le jour 17. Des animaux témoins arthritiques, des animaux témoins normaux ne reçoivent que le véhicule. Les critères d'appréciation de l'activité des substances étudiées sont les augmentations de volume des pattes postérieures non injectées (inflammation secondaire) par rapport au volume moyen des pattes correspondantes de témoins normaux.
On détermine la DA50, c'est-à-dire la dose qui diminue de 50% les augmentations de volume des pattes postérieures des animaux traités par rapport aux animaux témoins.

Assay [2] relates to mouvements répétés d'étirement et de torsion. The assay can be described thus: Analgesic activity: acetic acid-induced stretching (writhing) test, Koster. It is filed as in vivo, souris. The settings on record: 0.25 h; mouse, oral route half an hour before i.p. acetic acid 100 mg/kg; stretches counted for 15 min; dose giving 50 % decrease in number of stretches vs controls; read-out: DA50 (the source's name). The text has this:
Le test employé est basé sur le fait signalé par R. KOSTER et Coll., (Fed. Proc. 1959, 16412) selon lequel l'injection intrapéritonéale d'acide acétique provoque, chez la souris, des mouvements répétés d'étirement et de torsion pouvant persister pendant plus de six heures. Les analgésiques préviennent ou diminuent ce syndrome qui peut être considéré comme l'extériorisation d'une douleur abdominale diffuse. On utilise une solution d'acide acétique à 1 % dans l'eau. La dose déclenchant le syndrome est dans ces conditions de 0,01 cm^3/g, soit 100 mg/kg d'acide acétique.
Le produit étudié est administré par voie buccale une demi-heure avant l'injection d'acide acétique, les souris étant à jeun depuis la veille de l'expérience.
Les étirements sont observés et comptés pour chaque souris pendant une période d'observation de quinze minutes commençant aussitôt après l'injection d'acide acétique.
Les résultats sont exprimés au moyen de la DA50, c'est-à-dire la dose qui permet d'obtenir une diminution de 50 % du nombre des étirements par rapport aux animaux témoins.
(In writhing tests, fewer writhes than in controls are read as antinociception.)

As for `COc1ccc(-n2c(-c3ccc(N(C)C)cc3)nnc2C(C)O)cc1` (stereo not drawn) [5-/4-(diméthylamino) phényl/ 4-(4-méthoxyphényl)α-méthyl 4H-1,2,4-triazole 3-méthanol], the activité anti-inflammatoire entry in assay [1] (general statement in the description: models of chronic inflammation) is on record as “une certaine activité anti-infiammatoire”.

On to `COc1ccc(-n2c(-c3ccc(N(C)C)cc3)nnc2[C@H](C)O)cc1` [Exemple 11, 5-/4-(diméthylamino)-phényl/ 4-(4-méthoxyphényl)α-méthyl 4H-1,2,4-triazol-3-méthanol], for which the ED50 in assay [2] is 4 mg/kg. For the same compound, the “activité anti-inflammatoire (arthrite chronique à l'adjuvant)” value in assay [1] (male rats, oral route from day 0 to the day before sacrifice on day 17, volume increase of non-injected hind paws (secondary inflammation), result given in words only) was “activité notable”.
